# Experiments:
# Plasmopara viticola = experiment: Green house: fungicidal control of grape downy mildew caused by Plasmopara viticola (PLASVI P4); assay type: in vivo; conditions: grape plants sprayed, inoculated after four days
# Description: Fungicidal Control of Grape Downy Mildew Caused by Plasmopara viticola […]4) Grape cuttings were grown in pots to the 4 to 5 leaf stage. These plants were sprayed to run-off with a spray solution, containing the concentration of active ingredient or their mixture mentioned in the table below. The plants were allowed to air-dry and cultivated in a greenhouse for four days. Then they were inoculated with an aqueous spore suspension of Plasmopara viticola by spraying it at the lower leaf-side. Then the trial plants were immediately transferred for 24 h to a humid chamber with 22-24° C. and a and a saturated relative humidity. For a period of 5 days, cultivation followed in a greenhouse at 20-25° C. and a relative humidity about 50-80%. To stimulate the outbreak of the disease symptoms, the plants were transferred to a humid chamber again for 24 hours. Then the extent of fungal attack on the lower leaf surface was visually assessed as % diseased leaf area. The disease ratings were converted into efficacies. […] The expected efficacies of active compound mixtures were determined using Colby's formula [R. S. Colby, “Calculating synergistic and antagonistic responses of herbicide combinations”, Weeds 15, 20-22 (1967)] and compared with the observed efficacies.
# Uncinula necator = experiment: Green house: control of powdery mildew on grape caused by Uncinula necator (UNCINE P7); assay type: in vivo; conditions: grape plants sprayed, inoculated 7 days later, assessed after 22 days
# Description: Control of Powdery Mildew on Grape Caused by Uncinula necator ([…]7) Grape cuttings were grown in pots to the 4 to 5 leaf stage. These plants were sprayed to run-off with a spray solution, containing the concentration of active ingredient or their mixture mentioned in the table below. Seven days later the treated plants were inoculated with spores of Uncinula necator by shaking heavily infested stock plants over the treated pots. After cultivation in the greenhouse for 22 days at 21-23° C. and a relative humidity between 40 to 70% the extent of fungal attack on the leaves was visually assessed as % diseased leaf area. The disease ratings were converted into efficacies. […] The expected efficacies of active compound mixtures were determined using Colby's formula [R. S. Colby, “Calculating synergistic and antagonistic responses of herbicide combinations”, Weeds 15, 20-22 (1967)] and compared with the observed efficacies.
# [1] = application rate 5 g/ha, 0 = as untreated, 100 = not infected
smiles,measurement,setting,value
"CC(O)(Cn1cncn1)c1ccc(Oc2ccc(Cl)cc2)cc1C(F)(F)F (centres unmarked) [I, mefentrifluconazole]",Observed efficacy,Plasmopara viticola; application rate 1 g/ha,2
same,Observed efficacy,Plasmopara viticola; [1],1
same,Observed efficacy,Uncinula necator; [1],72
"Cn1cc(C(=O)Nc2ccccc2-c2cc(F)c(F)c(F)c2)c(C(F)F)n1 [II-6, fluxapyroxad]",Observed efficacy,Uncinula necator; application rate 0.5 g/ha,52
"Cc1cc(C(F)(F)F)nn1CC(=O)N1CCC(c2nc(C3=NOC(c4c(F)cccc4F)C3)cs2)CC1 (centres unmarked) [II-9, oxathiapiprolin]",Observed efficacy,Plasmopara viticola; application rate 0.1 g/ha,18
